Where a SMILES comes first, the peptide text is derived from it. Bridges are numbered along the chain shown (N, C = ends). Where no end group is shown, it is not given here.
Key:
human PAC1 receptor = target: T1, human PAC1 receptor (Homo sapiens, UniProt P41586); test: LANCE Ultra cAMP accumulation antagonist assay in SHSY-5Y cells; type: cell-based;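 also: inhibition of cAMP accumulation evoked by PAC1 agonist at its EC80 in SHSY-5Y cells endogenously expressing receptor, 30 min preincubation then 15 min agonist, TR-FRET readout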
T1 construct: SHSY-5Y (human neuroblastoma cell line) and RG-2 (rat glioma cell line) cells endogenously express human and rat PAC1 receptors, respectively; endogenous in cells; host or cells: SHSY-5Y human neuroblastoma cells
T1 sequence (P41586 21-468): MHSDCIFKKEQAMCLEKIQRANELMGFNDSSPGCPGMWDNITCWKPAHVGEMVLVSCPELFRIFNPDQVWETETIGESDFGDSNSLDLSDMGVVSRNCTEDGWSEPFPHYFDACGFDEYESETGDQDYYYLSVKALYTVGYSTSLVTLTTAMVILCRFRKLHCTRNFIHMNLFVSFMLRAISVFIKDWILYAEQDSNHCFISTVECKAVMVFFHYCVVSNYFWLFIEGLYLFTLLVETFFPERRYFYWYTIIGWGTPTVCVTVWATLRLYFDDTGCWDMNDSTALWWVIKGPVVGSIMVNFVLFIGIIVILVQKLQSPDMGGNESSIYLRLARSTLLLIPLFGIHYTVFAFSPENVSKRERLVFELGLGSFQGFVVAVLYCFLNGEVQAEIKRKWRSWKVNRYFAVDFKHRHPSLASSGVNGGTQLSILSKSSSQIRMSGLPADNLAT

rat PAC1 receptor = target: T2, rat PAC1 receptor (Rattus norvegicus, UniProt P32215); test: LANCE Ultra cAMP accumulation antagonist assay in RG-2 cells; type: cell-based;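 also: RG-2 rat glioma cells endogenously expressing PAC1, test peptide preincubated 30 min, then PAC1 agonist added at its EC80 for 15 min, cAMP accumulation read by LANCE Ultra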
T2 construct: SHSY-5Y (human neuroblastoma cell line) and RG-2 (rat glioma cell line) cells endogenously express human and rat PAC1 receptors, respectively; endogenous in cells; host or cells: RG-2 rat glioma cells
T2 sequence (P32215 20-523): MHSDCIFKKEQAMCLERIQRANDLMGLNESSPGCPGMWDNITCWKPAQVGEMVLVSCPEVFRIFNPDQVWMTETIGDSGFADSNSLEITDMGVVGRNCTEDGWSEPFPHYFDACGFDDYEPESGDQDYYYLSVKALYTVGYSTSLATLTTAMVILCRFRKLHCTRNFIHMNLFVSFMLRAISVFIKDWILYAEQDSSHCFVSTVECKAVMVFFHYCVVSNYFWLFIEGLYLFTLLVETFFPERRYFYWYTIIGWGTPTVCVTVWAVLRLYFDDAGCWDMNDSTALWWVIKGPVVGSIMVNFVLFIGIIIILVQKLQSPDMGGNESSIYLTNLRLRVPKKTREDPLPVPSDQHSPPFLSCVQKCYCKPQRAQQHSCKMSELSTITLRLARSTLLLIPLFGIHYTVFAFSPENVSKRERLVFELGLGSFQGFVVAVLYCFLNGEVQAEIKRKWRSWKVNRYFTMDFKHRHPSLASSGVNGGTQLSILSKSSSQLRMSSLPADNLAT

Compound	IC50 (human PAC1 receptor)	IC50 (rat PAC1 receptor)
CC[C@H](C)[C@H](NC(=O)[C@H](C)NC(=O)[C@H](CCCCN)NC(=O)[C@H](CCCNC(=N)N)NC(=O)[C@H](Cc1ccccc1)NC(=O)[C@H](CCC(N)=O)NC(=O)[C@@H]1CSSC[C@H](N)C(=O)N[C@@H](CC(=O)O)C(=O)N[C@@H](C)C(=O)N[C@@H]([C@@H](C)O)C(=O)N1)C(=O)N[C@@H](CC(=O)O)C(=O)N[C@@H](CC(=O)O)C(=O)N[C@H]1CSSC[C@@H](C(=O)N[C@@H](CCSC)C(=O)N[C@@H](CCCCN)C(=O)N[C@@H](CCC(N)=O)C(=O)N[C@@H](CCCCN)C(=O)N[C@@H](CCCCN)C(=O)N[C@@H](CCCCN)C(=O)N[C@@H](CCC(=O)O)C(=O)N[C@@H](Cc2ccccc2)C(=O)N[C@@H](CCCCN)C(=O)N[C@@H](C)C(=O)NCC(=O)N[C@@H](Cc2c[nH]cn2)C(=O)O)NC(=O)[C@H](C)NC(=O)[C@H](CCCCN)NC(=O)[C@H](Cc2ccccc2)NC(=O)[C@H](C(C)C)NC(=O)[C@H](CO)NC(=O)[C@H](CO)NC(=O)[C@H](Cc2c[nH]cn2)NC(=O)[C@H](Cc2c[nH]cn2)NC(=O)[C@H](C)NC(=O)[C@H](CCC(N)=O)NC(=O)[C@H](CCCCN)NC(=O)[C@H](C(C)C)NC1=O [compound 19] (H-CDATCQFRKAIDDCVKQAHHSSVFKACMKQKKKEFKAGH-OH; disulfide 1-5, 14-27)	1 to 100 nM	0.01 to 1 nM
CDATCQFRKAIDDCVKQAHHSNVPGSVFKACMKQKKKEFKAGY (disulfide 1-5, 14-31) [compound 48]	0.01 to 1 nM	0.01 to 1 nM
CDATCQFRKAIDDCVRQAHHSNVPGSVFKACMKQKKKEWKAH (disulfide 1-5, 14-31) [compound 99]	0.01 to 1 nM	0.01 to 1 nM
CDATCQFRKAIDDCWMLSWHANVPGSVFKACMKQKKKEFKAGH (disulfide 1-5, 14-31) [compound 111]	0.01 to 1 nM	0.01 to 1 nM
CDATCQFRKAIDDCYYYAMHSNVPGSVWKACLKQKKKEFKAG-NH2 (disulfide 1-5, 14-31) [compound 78]	0.01 to 1 nM	0.01 to 1 nM
CC[C@H](C)[C@H](NC(=O)[C@H](C)NC(=O)[C@H](CCCCN)NC(=O)[C@H](CCCNC(=N)N)NC(=O)[C@H](Cc1ccccc1)NC(=O)[C@H](CCC(N)=O)NC(=O)[C@@H]1CSSC[C@H](N)C(=O)N[C@@H](CC(=O)O)C(=O)N[C@@H](C)C(=O)N[C@@H]([C@@H](C)O)C(=O)N1)C(=O)N[C@@H](CC(=O)O)C(=O)N[C@@H](CC(=O)O)C(=O)N[C@H]1CSSC[C@@H](C(=O)N[C@@H](CCSC)C(=O)N[C@@H](CCCCN)C(=O)N[C@@H](CCC(N)=O)C(=O)N[C@@H](CCCCN)C(=O)N[C@@H](CCCCN)C(=O)N[C@@H](CCCCN)C(=O)N[C@@H](CCC(=O)O)C(=O)N[C@@H](Cc2c[nH]c3ccccc23)C(=O)N[C@@H](CCCCN)C(=O)N[C@@H](C)C(=O)NCC(N)=O)NC(=O)[C@H](C)NC(=O)[C@H](CCCCN)NC(=O)[C@H](Cc2ccccc2)NC(=O)[C@H](C(C)C)NC(=O)[C@H](CO)NC(=O)[C@H](CO)NC(=O)[C@H](Cc2c[nH]cn2)NC(=O)[C@H](Cc2c[nH]cn2)NC(=O)[C@H](C)NC(=O)[C@H](CCC(N)=O)NC(=O)[C@H](CCCNC(=N)N)NC(=O)[C@H](CC(=O)O)NC1=O [compound 16] (H-CDATCQFRKAIDDCDRQAHHSSVFKACMKQKKKEWKAG-NH2; disulfide 1-5, 14-27)	0.01 to 1 nM	0.01 to 1 nM
CDATCQFRKAIDDCLWWSQHSNVPGSVFKACMKQKKKEFKAG-NH2 (disulfide 1-5, 14-31) [compound 117]	0.01 to 1 nM	0.01 to 1 nM
CC[C@H](C)[C@H](NC(=O)[C@H](C)NC(=O)[C@H](CCCCN)NC(=O)[C@H](CCCNC(=N)N)NC(=O)[C@H](Cc1ccccc1)NC(=O)[C@H](CCC(N)=O)NC(=O)[C@@H]1CSSC[C@H](N)C(=O)N[C@@H](CC(=O)O)C(=O)N[C@@H](C)C(=O)N[C@@H]([C@@H](C)O)C(=O)N1)C(=O)N[C@@H](CC(=O)O)C(=O)N[C@@H](CC(=O)O)C(=O)N[C@H]1CSSC[C@@H](C(=O)N[C@@H](CCSC)C(=O)N[C@@H](CCCCN)C(=O)N[C@@H](CCC(N)=O)C(=O)N[C@@H](CCCCN)C(=O)N[C@@H](CCCCN)C(=O)N[C@@H](CCCCN)C(=O)N[C@@H](CCC(=O)O)C(=O)N[C@@H](Cc2ccccc2)C(=O)N[C@@H](CCCCN)C(N)=O)NC(=O)[C@H](CCC(=O)O)NC(=O)[C@H](CCCCN)NC(=O)[C@H](Cc2ccccc2)NC(=O)[C@H](CO)NC(=O)[C@H](CC(N)=O)NC(=O)[C@H](CO)NC(=O)[C@H](Cc2c[nH]cn2)NC(=O)[C@H](Cc2c[nH]cn2)NC(=O)[C@H](C)NC(=O)[C@H](CCC(N)=O)NC(=O)[C@H](CCCCN)NC(=O)[C@H](CC(=O)O)NC1=O [compound 222]	< 0.01 nM	1 to 100 nM
CDATCQFRKAIDDCQKQAHHSNVPGSVFKACMKFRFNVWKAG-NH2 (disulfide 1-5, 14-31) [compound 127]	0.01 to 1 nM	0.01 to 1 nM
CDATCQFRKAIDDCSWFAIHSNVPGSVFKACMKQKKKEFKAG-NH2 (disulfide 1-5, 14-31) [compound 115]	0.01 to 1 nM	0.01 to 1 nM
CDATCQFRKAIDDCYYRSHSNVPGSVFKACMKQKKKEFKAG-NH2 (disulfide 1-5, 14-30) [compound 42]	0.01 to 1 nM	0.01 to 1 nM
CC[C@H](C)[C@H](NC(=O)[C@H](C)NC(=O)[C@H](CCCCN)NC(=O)[C@H](CCCNC(=N)N)NC(=O)[C@H](Cc1ccccc1)NC(=O)[C@H](CCC(N)=O)NC(=O)[C@@H]1CSSC[C@H](N)C(=O)N[C@@H](CC(=O)O)C(=O)N[C@@H](C)C(=O)N[C@@H]([C@@H](C)O)C(=O)N1)C(=O)N[C@@H](CC(=O)O)C(=O)N[C@@H](CC(=O)O)C(=O)N[C@H]1CSSC[C@@H](C(=O)N[C@@H](CCSC)C(=O)N[C@@H](CCCCN)C(=O)N[C@@H](CCC(N)=O)C(=O)N[C@@H](CCCCN)C(=O)N[C@@H](CCCCN)C(=O)N[C@@H](CCCCN)C(=O)N[C@@H](CCC(=O)O)C(=O)N[C@@H](Cc2ccccc2)C(=O)N[C@@H](CCCCN)C(N)=O)NC(=O)[C@H](CCC(=O)O)NC(=O)[C@H](CCCCN)NC(=O)[C@H](Cc2ccccc2)NC(=O)[C@H](C(C)C)NC(=O)[C@H](CO)NC(=O)[C@H](CC(N)=O)NC(=O)CNC(=O)[C@H](C(C)C)NC(=O)[C@H](CC(N)=O)NC(=O)[C@H](CO)NC(=O)[C@H](Cc2c[nH]cn2)NC(=O)[C@H](Cc2c[nH]cn2)NC(=O)[C@H](C)NC(=O)[C@H](CCC(N)=O)NC(=O)[C@H](CCCCN)NC(=O)[C@H](CCC(N)=O)NC1=O [compound 275] (H-CDATCQFRKAIDDCQKQAHHSNVGNSVFKECMKQKKKEFK-NH2; disulfide 1-5, 14-31)	1 to 100 nM	1 to 100 nM
CSCC[C@H](NC(=O)[C@@H]1CSSC[C@H](NC(=O)[C@H](C)NC(=O)[C@@H](NC(=O)[C@H](CC(C)C)NC(=O)CNC(=O)[C@H](CCCCN)NC(=O)[C@H](CCCNC(=N)N)NC(=O)[C@H](Cc2ccc(O)cc2)NC(=O)[C@H](CCC(N)=O)NC(=O)[C@@H]2CSSC[C@H](N)C(=O)N[C@@H](CC(=O)O)C(=O)N[C@@H](C)C(=O)N[C@@H]([C@@H](C)O)C(=O)N2)C(C)C)C(=O)N[C@@H](C)C(=O)N[C@@H](CCCNC(=N)N)C(=O)N[C@@H](CCC(N)=O)C(=O)N[C@@H](C)C(=O)N[C@@H](Cc2ccc(O)cc2)C(=O)N[C@@H](Cc2c[nH]cn2)C(=O)N[C@@H](CO)C(=O)N[C@@H](CO)C(=O)N[C@@H](C(C)C)C(=O)N[C@@H](Cc2ccccc2)C(=O)N[C@@H](CCCCN)C(=O)N[C@@H](C)C(=O)N1)C(=O)N[C@@H](CCCCN)C(=O)N[C@@H](CCC(N)=O)C(=O)N[C@@H](CCCCN)C(=O)N[C@@H](CCCCN)C(=O)N[C@@H](CCCCN)C(=O)N[C@@H](CCC(=O)O)C(=O)N[C@@H](Cc1c[nH]c2ccccc12)C(N)=O [compound 5] (H-CDATCQYRKGLVACARQAYHSSVFKACMKQKKKEW-NH2; disulfide 1-5, 14-27)	1 to 100 nM	1 to 100 nM

From patent US20210395313A1, “PEPTIDE PAC1 ANTAGONISTS” (AMGEN INC., priority 2017, published 2021)
